Test results as given in ChEMBL document CHEMBL1201862, “PubChem BioAssay data set” (2004).
The source made the active and inactive calls.

How the values were obtained:
[1] = P. falciparum late gametocyte killing, dose response, luminescence (AID 1117278); assay type: functional, cell-based;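 also: gametocytes exposed to compound for 24 hours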
[2] = Jurkat T cell cytotoxicity, dose response, cytotoxicity control for P. falciparum gametocyte viability project, luminescence (AID 1117277); assay type: functional, cell-based;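 also: potency reflects loss of cellular ATP meaning fewer viable cells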
[3] = system: Vero; test: host cell cytotoxicity of antiviral hits, dose response, cytotoxicity control for West Nile virus antiviral project, secondary assay (AID 1650); assay type: functional; details: Chlorocebus sabaeus
[4] = inhibitors of firefly luciferase expression or activity, dose response, H4 neuroglioma cells, luminescence (AID 1990); assay type: functional, cell-based
[5] = Luminescence Cell-Based Dose Response HTS to Identify Inhibitors of 5'UTR Stem-Loop Driven Prion Protein mRNA Translation in H4 Neuroglioblastoma Cells. [Related pubchem assays: 1827 (Project Summary), 1813 (Primary HTS)]; assay type: functional
[6] = inhibitors of SNCA 5'UTR-driven reporter translation, confirmation, H4 neuroglioma cells, luminescence (AID 1988); assay type: functional, cell-based
[7] = biological target: T1, Protein skinhead-1 (Caenorhabditis elegans, UniProt P34707); assay type: functional
T1 sequence (P34707 whole entry): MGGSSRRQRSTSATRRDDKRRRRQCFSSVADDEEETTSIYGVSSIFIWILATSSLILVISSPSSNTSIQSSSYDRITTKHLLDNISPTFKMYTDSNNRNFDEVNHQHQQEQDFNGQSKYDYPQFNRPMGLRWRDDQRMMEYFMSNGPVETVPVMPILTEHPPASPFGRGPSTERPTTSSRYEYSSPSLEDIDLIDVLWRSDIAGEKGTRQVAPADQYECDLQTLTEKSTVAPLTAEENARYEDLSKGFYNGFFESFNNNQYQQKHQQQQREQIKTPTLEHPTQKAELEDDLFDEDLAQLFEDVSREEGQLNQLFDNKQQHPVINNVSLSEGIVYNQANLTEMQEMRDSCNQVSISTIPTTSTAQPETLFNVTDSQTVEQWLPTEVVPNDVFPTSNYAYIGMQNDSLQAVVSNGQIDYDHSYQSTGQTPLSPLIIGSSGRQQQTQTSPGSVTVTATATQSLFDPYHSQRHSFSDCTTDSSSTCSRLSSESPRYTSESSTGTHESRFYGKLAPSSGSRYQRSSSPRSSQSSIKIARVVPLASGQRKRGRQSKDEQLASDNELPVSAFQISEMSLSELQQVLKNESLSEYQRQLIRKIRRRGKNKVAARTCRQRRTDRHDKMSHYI

[8] = HepG2 cell cytotoxicity, dose response, cytotoxicity control, plate reader, cherry-pick, antagonist series (AID 743416); assay type: functional, cell-based
[9] = LGR2 antagonists, dose response, cell-based, HEK293, CRE-luciferase reporter, cherry pick, set 2 (AID 743343); assay type: functional;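 also: transfected cells were stimulated with diluted bursicon conditioned medium after compound addition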
[10] = MC4R antagonists, dose response, counter-screen for LGR2 antagonist project, cell-based, plate reader, cherry pick (AID 743444); assay type: functional;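 also: transfected HEK 293 cells stimulated with alpha-MSH peptide; potency of inhibitors of the alpha-MSH evoked signal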
[11] = HEK293 cell cytotoxicity, dose response, cytotoxicity control, plate reader, cherry-picked samples (AID 743446); assay type: functional, cell-based
[12] = biological target: T2, 1-phosphatidylinositol 4,5-bisphosphate phosphodiesterase gamma-1 (Homo sapiens, UniProt P19174); test: Counterscreen for inhibitors of phospholipase C isozymes (PLC-B3): Fluorescence-based biochemical high throughput dose response assay to identify inhibitors of phospholipase C isozymes (PLC-gamma1).
T2 sequence (P19174 whole entry): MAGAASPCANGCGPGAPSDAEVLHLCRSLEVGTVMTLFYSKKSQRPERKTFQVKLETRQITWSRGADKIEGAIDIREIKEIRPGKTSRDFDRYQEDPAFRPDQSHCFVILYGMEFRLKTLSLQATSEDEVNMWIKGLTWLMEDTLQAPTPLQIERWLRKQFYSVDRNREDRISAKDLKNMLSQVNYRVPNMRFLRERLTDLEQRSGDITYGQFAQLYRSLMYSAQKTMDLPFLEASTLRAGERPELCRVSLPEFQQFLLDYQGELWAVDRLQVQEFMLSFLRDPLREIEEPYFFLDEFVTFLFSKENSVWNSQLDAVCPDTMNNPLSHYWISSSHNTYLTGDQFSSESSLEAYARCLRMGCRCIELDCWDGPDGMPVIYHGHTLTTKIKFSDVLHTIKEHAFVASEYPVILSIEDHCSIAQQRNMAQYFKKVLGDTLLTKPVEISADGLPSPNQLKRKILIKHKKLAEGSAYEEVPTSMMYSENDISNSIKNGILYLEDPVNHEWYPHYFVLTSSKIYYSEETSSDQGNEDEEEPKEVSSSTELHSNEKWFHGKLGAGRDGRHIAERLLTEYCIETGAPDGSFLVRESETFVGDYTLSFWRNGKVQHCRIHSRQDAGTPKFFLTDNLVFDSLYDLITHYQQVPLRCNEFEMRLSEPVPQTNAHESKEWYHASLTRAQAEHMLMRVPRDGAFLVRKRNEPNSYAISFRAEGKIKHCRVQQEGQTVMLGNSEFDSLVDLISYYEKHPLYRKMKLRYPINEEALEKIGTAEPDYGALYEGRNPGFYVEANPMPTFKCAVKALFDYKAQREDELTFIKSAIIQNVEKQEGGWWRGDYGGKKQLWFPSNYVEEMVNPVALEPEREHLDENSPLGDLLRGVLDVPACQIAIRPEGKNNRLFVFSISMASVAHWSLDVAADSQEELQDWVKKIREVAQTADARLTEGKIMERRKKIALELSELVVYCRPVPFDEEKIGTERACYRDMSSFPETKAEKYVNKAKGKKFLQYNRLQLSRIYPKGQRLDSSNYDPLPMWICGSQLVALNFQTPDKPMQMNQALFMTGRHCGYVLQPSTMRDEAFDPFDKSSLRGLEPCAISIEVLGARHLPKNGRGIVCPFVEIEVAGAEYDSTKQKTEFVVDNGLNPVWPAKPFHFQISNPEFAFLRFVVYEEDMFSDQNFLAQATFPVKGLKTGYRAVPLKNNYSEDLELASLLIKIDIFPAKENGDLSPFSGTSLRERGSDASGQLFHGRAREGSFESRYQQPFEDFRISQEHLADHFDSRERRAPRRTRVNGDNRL

[13] = biological target: T3, 1-phosphatidylinositol 4,5-bisphosphate phosphodiesterase beta-3 (Homo sapiens, UniProt Q01970); test: Fluorescence-based biochemical high throughput dose response assay to identify inhibitors of phospholipase C isozymes (PLC-B3).
T3 sequence (Q01970 whole entry): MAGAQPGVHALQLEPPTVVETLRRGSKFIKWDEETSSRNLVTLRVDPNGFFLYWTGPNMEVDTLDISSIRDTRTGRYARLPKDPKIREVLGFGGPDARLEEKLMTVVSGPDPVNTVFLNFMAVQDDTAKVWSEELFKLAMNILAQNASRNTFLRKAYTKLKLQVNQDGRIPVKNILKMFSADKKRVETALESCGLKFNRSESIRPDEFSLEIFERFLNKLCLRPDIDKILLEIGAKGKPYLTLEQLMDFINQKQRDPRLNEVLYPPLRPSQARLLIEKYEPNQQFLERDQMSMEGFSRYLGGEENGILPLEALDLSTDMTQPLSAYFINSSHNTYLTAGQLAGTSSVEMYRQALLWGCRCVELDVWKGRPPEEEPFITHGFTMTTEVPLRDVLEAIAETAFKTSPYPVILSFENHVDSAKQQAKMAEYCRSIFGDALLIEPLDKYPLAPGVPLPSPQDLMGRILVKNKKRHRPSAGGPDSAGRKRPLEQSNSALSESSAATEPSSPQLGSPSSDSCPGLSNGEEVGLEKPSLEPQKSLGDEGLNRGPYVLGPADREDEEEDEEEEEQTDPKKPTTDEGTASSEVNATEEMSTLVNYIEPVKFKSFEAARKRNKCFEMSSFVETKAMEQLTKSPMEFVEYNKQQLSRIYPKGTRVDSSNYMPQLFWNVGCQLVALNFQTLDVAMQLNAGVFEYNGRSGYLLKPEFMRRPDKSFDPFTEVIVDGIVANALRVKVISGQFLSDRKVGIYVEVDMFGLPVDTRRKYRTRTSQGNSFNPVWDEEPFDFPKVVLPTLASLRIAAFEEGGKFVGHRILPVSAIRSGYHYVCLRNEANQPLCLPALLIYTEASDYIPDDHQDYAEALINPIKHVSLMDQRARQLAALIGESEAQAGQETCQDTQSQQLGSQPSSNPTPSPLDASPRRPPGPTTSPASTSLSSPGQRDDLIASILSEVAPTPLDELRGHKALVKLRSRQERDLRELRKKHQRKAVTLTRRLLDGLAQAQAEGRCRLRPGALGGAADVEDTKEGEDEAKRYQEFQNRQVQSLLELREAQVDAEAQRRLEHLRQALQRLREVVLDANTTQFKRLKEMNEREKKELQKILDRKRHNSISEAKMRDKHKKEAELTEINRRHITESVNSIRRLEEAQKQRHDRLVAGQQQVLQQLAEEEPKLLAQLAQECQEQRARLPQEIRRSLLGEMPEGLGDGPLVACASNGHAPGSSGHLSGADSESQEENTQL

[14] = biological target: T4, COUP transcription factor 2 (Homo sapiens, UniProt P24468); test: Luminescence-based cell-based high throughput dose response assay to identify inhibitors of COUP-TFII (NR2F2).; assay type: functional;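 also: HEK293 cells transiently cotransfected with COUP-TFII expression vector and reporter; luciferase reporter luminescence driven by COUP-TFII from the pX2-168 reporter plasmid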
T4 sequence (P24468 whole entry): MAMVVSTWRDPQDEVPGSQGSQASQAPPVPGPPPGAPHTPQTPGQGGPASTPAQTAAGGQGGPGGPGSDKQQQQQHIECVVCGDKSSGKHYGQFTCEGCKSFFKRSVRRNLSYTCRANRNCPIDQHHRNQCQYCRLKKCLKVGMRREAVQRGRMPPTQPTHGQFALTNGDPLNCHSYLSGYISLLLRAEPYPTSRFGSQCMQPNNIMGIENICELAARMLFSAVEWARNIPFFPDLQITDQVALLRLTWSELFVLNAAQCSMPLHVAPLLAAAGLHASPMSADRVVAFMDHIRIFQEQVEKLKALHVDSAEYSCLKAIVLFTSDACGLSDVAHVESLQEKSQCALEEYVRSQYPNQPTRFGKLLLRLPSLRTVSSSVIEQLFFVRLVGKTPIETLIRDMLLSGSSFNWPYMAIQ

## Cc1ccc(C(=O)N2CCN(S(=O)(=O)c3ccccc3)CC2)cc1
[1]
  IC50: > 109 µM (inactive)
[2]
  IC50: > 83.3 µM (inactive)

## Cc1cccc(-c2cc3nc(C)cc(NCCCN(C)C)n3n2)c1
[3]
  CC50: 64.2 µM (active)

## CCCOc1ccc2cc(-c3ccccn3)c(=O)oc2c1
[4]
  EC50: 2.91 µM (active)
[5]
  EC50: 9.71 µM (active)
[6]
  EC50: 2.83 µM (active)
[7]
  IC50: > 100 µM (inactive)
[8]
  AC50: > 52 µM (inactive)
[9]
  AC50: 1.48 µM (active)
[10]
  AC50: 2 µM (active)
[11]
  AC50: 33.6 µM (active)

## Cc1ccc(S(=O)(=O)Cc2nc(O)c3ccccc3n2)cc1
[12]
  IC50: > 123 µM (inactive)
[13]
  IC50: > 123 µM (inactive)

## O=C(COC(=O)CSc1ccc2ccccc2c1)NCc1ccc2c(c1)OCO2
[1]
  IC50: > 109 µM (inactive)
[2]
  IC50: > 83.3 µM (inactive)

## Cn1c2ccccc2c(=O)c2cc(C#CC3(O)CCCCC3)ccc21
[14]
  IC50: 12 µM (inactive)

## Cc1cc(NC(=O)c2ccccc2)ncc1NC(=O)c1cccs1
[12]
  IC50: > 122 µM (inactive)
[13]
  IC50: > 122 µM (inactive)
